Where a name gives a salt, the structure may show the parent alone. Read-outs that look alike come from different tables or passages of the source.
How the values were obtained:
rat paw edema = test: Rat Paw Edema Assay (carrageenan), edema inhibition; type: in vivo, Male Sprague-Dawley rats; conditions: po 1 hr before carrageenan, paw volume at 3 hr
Procedure: Rat Paw Edema Assay-Protocol
Male Sprague-Dawley rats (150-200 g) are fasted overnight and are given po either vehicle (1% methocel or 5% Tween 80) or a test compound. One hr later, a line is drawn using a permanent marker at the level above the ankle in one hind paw to define the area of the paw to be monitored. The paw volume (V0) is measured using a plethysmometer (Ugo-Basile, Italy) based on the principle of water displacement. The animals are then injected subplantarly with […] of 1% carrageenan solution in saline (FMC Corp, Maine) into the paw using an insulin syringe with a 25-gauge needle (i.e., […] carrageenan per paw). Three hr later, the paw volume (V3) is measured and the increases in paw volume (V3 -V0) are calculated. The animals are sacrificed by CO2 asphyxiation and the absence or presence of stomach lesions scored. Data is compared with the vehicle-control values and percent inhibition calculated. All treatment groups are coded to eliminate observer bias.

[1] = target: T1, cyclooxygenase-1 (human U-937 cells) (Homo sapiens, UniProt P23219); test: Inhibition of cyclooxygenase-1: PGE2 production in human U-937 cells, whole cell assay; type: cell-based; conditions: PGE2 synthesis in response to arachidonic acid, read-out: Cox-1 IC50
T1 construct: human U-937 cells (which specifically express cyclooxygenase-1); endogenous in cells; host or cells: human U-937 cells
T1 sequence (P23219 24-599): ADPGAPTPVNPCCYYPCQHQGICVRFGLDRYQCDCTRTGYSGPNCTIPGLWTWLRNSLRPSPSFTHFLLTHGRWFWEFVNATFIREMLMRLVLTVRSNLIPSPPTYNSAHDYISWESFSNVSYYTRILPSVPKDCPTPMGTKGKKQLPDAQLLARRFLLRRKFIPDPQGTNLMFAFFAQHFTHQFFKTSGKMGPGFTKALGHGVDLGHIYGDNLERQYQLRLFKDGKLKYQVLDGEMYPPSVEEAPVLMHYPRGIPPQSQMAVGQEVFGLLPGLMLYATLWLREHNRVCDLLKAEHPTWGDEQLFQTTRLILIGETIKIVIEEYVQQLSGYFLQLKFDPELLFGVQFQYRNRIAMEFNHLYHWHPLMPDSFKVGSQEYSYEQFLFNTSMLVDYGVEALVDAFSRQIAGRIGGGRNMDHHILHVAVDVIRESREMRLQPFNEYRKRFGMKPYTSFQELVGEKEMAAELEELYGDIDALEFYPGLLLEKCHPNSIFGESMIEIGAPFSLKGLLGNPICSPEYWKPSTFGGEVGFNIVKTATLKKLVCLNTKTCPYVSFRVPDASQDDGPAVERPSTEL

[2] = target: T2, cyclooxygenase-2 (human osteosarcoma 143 cells) (Homo sapiens, UniProt P35354); test: Inhibition of cyclooxygenase-2: PGE2 production in human osteosarcoma 143 cells, whole cell assay; type: cell-based
T2 construct: human osteosarcoma 143 cells (which specifically express cyclooxygenase-2); endogenous in cells; host or cells: human osteosarcoma 143 cells
T2 sequence (P35354 18-604): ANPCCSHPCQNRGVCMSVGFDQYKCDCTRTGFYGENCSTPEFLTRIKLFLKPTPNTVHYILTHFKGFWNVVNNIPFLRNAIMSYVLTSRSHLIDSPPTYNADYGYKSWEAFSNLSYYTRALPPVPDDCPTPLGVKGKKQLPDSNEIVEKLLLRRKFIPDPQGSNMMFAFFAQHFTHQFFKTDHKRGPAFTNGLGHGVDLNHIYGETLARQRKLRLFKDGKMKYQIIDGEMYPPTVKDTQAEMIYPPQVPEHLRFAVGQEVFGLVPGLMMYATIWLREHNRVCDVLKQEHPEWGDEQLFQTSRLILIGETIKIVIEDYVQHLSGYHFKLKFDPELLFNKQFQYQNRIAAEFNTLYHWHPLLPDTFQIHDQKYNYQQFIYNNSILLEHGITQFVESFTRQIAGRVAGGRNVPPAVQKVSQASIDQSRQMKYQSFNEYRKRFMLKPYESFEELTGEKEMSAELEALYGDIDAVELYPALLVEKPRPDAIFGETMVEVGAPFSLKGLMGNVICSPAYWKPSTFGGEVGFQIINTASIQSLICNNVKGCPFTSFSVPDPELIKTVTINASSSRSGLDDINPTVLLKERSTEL

[3] = human osteosarcoma 143 cells, whole cell, PGE2 synthesis in response to arachidonic acid, read-out: Cox-2 IC50

Row | IC50 [1] [nM] | IC50 [2, 3] [nM] | IC50 [2] [nM] | Compound | ED30 (rat paw edema) [mg/kg]
1 | – | – | – | COc1ccc2c(c1)c(C(C)C(=O)O)c(C)n2Cc1ccc(Cl)cc1 (stereo not shown) [MK-555, a-(1-p-chlorobenzyl-2-methyl-5-methoxy-3-indolyl)propionic acid, reference compound] | 3
2 | > 25000 | 9 | – | COc1ccc2c(c1)c(CC1(CC(=O)O)CC1)c(C)n2Cc1ccc(Cl)cc1 [Example 25, 4-[1-(4-Chlorobenzyl)-5-methoxy-2-methyl-1H-indol-3-yl]-3-(ethane-1,2-diyl)butanoic acid] | > 3
3 | – | – | – | COc1ccc2c(c1)c(CC(=O)O)c(C)n2C(=O)c1ccc(Cl)cc1 [Indomethacin, reference compound] | 0.9
4 | > 100000 | – | 16 | COc1ccc2c(c1)c(CC1(CC(=O)O)CC1)c(C)n2Cc1ccc(Br)cc1 [Example 2, [4-(1-(4-Bromobenzyl) -5-methoxy-2-methyl-1 H-indol-3-yl) -3-(ethane-1,2-diyl)]butanoic acid, sodium salt] | 0.54
5 | > 10000 | 5 | – | Cc1c(CC(C)CC(=O)O)c2cc(Cl)ccc2n1Cc1ccc(Br)cc1 (racemic) [Example 34, 4-[1-(4-Bromobenzyl)-5-chloro-2-methyl-1 H-indol-3-yl]-3-methyl-butanoic acid] | 0.51
6 | > 10000 | – | – | COc1ccc2c(c1)c(C[C@@H](C)CC(=O)O)c(C)n2Cc1ccc(Br)cc1 [Example 8, (3R) 4-(1-(4-Bromobenzyl)-5-methoxy-2-methyl-1H-indol-3-yl)-3-methylbutanoic ac id] | 0.6
7 | > 50000 | 6 | – | Cc1c(CCCC(=O)O)c2cc(Br)ccc2n1Cc1ccc(Br)cc1 [Example 24, 4-[5-Bromo-1-(4-bromobenzyl)-2-methyl-1H-indol-3-yl]butanoic acid] | ~3
8 | > 10000 | 6 | – | COc1ccc2c(c1)c(CCCC(=O)O)c(C)n2Cc1ccc(Br)cc1 [Example 4, 4-(1-(4-Bromobenzyl)-5-methoxy-2-methyl-1H-indol-3-yl)butanoic acid] | 1.2

— patent publication US5639780A, “N-benzyl indol-3-yl butanoic acid derivatives as cyclooxygenase inhibitors” (priority 1995, dated 1997)
